We go through 3 molecules from PMC6385376, “Coupling of a viral K^+-channel with a glutamate-binding-domain highlights the modular design of ionotropic glutamate-receptors” (Communications Biology, 2019).

Several values for one entry are separate records, joined by “and”; a condition that tells them apart may be missing. Equal values may be shown once. Read-outs that look alike come from different tables or passages of the source.

Assay type in all cases: cell-based
Experiment [1] deals with GluATCV (GluA1/KcvATCV-1 chimera). Description: Two-electrode voltage clamp of GluATCV expressing Xenopus oocytes. The text has this: (§1) The GluATCV constructs were generated by replacing the nucleotide sequence encoding amino acids 538–629 (GluATCVlong), 634 (GluATCV short) and 642 (GluATCV) of the mature GluA1 by the KcvATCV-1 sequence with the use of XhoI and NheI. The GluATCV^ΔNTD and GluATCV^ΔM4 constructs were generated by excising the nucleotide sequence encoding amino acids 19–394 and upstream of 784 of the mature GluA1 by deletion PCR, respectively. All constructs were confirmed by DNA sequencing (Seqlab, Göttingen, Germany).
(§2) cRNAs were synthesized by using the AmpliCap-Max™ T7 High Yield Message Maker Kit of Cellscript (Madison, Wi, USA) with the plasmid linearized by AatII. X. laevis oocytes were used for two electrode voltage-clamp (TEVC) electrophysiology as previously described. Oozytes were surgically obtained from female X. laevis after anesthesia with 0.1% Tricaine in water under the approval of the Technical University of Darmstadt (Agreement V54-19c20/15 DA8/Anz. 20). After the harvest, oocytes were incubated for 1 h in 0.8 mg collagenase in frog ringer [96 mM NaCl, 2 mM KCl, 1 mM CaCl2,1 mM MgCl2, and 5 mM HEPES (pH 7.4 with NaOH)][53]. After the treatment and a washing step with Ca^2+ free ringer [96 mM NaCl, 2 mM KCl,1 mM MgCl2, and 5 mM HEPES (pH 7.4 with NaOH)] oocytes of stage V and VI were selected and defolliculated by pipetting with a burned glass-Pasteur-pipette. For electrophysiological analysis, oocytes were injected with 50 ng in a volume of 50 nl of the respective construct. After injection the oocytes were incubated in ND-96 solution (96 mM NaCl, 2 mM KCl, 1 mM CaCl2, 1 mM MgCl2, 5 mM HEPES, pH 7.4 with NaOH) at 18 °C for 3–5 days until the electrophysiological measurements. The TEVC recordings were performed at room temperature with an Axoclamp 900A amplifier, digitized with a Digidata 1550A at 5 kHz after low-pass filtering at 200 Hz and recorded with Clampex 10.7 (Molecular Devices, San Jose, USA). For recording the microelectrodes were filled with 3 M KCl (resistance 0.8–2.8 MΩ in external solution) and the oocytes were clamped at −70 mV. The external solution was a modified ringer solution containing 100 mM KCl; 10 mM HEPES; 1.8 mM CaCl2; 1 mM MgCl2 (pH 7.4 with KOH) alone or containing agonist.
(§3) Permeability ratio was calculated by the shift of the reversal potential with the Goldman–Hodgkin–Katz equation under bi-ionic conditions PNa^+/PK^+=expΔErev*F/R*T [27]. The amplitude was measured with KielPatch and also the open probability in bilayer measurements was analyzed by the build in Hinkley-jump-detector of KielPatch (http://www.zbm.uni-kiel.de/aghansen/software.html). Values given represent means ± SEM. Statistical significance was determined at the p < 0.05 (*), p < 0.01 (**), and p < 0.001 (***) levels using a Student’s two-tailed, unpaired two-side t-test or ANOVA (in case of more groups) and a Tukey post-hoc analysis (Prism 7.00). All data are shown as boxplots with a center line representing the median; box limits are the upper and lower quartiles; whiskers representing min and max.
On the technique in general: In two-electrode clamp one electrode senses voltage and the other passes current.

Experiment [2] concerns the target GluATCV* (GluATCV G614S/F615L) (Rattus norvegicus, UniProt P19490, L497Y). Conditions: GluATCV* oocytes; for Glutamate-induced fraction of the Ba^2+-block (IGlu/IBa): fraction of total Ba^2+-sensitive current.
Description: as §1, §2, §3

Experiment [3] deals with GluATCVshort (GluA1/KcvATCV-1 chimera). Description: Two-electrode voltage clamp of GluATCVshort expressing Xenopus oocytes.
Description: as §1
(§4) cRNAs were synthesized by using the AmpliCap-Max™ T7 High Yield Message Maker Kit of Cellscript (Madison, Wi, USA) with the plasmid linearized by AatII. X. laevis oocytes were used for two electrode voltage-clamp (TEVC) electrophysiology as previously described. […] The TEVC recordings were performed at room temperature with an Axoclamp 900A amplifier, digitized with a Digidata 1550A at 5 kHz after low-pass filtering at 200 Hz and recorded with Clampex 10.7 (Molecular Devices, San Jose, USA). […]
(§5) Permeability ratio was calculated by the shift of the reversal potential with the Goldman–Hodgkin–Katz equation under bi-ionic conditions PNa^+/PK^+=expΔErev*F/R*T [27]. The amplitude was measured with KielPatch and also the open probability in bilayer measurements was analyzed by the build in Hinkley-jump-detector of KielPatch (http://www.zbm.uni-kiel.de/aghansen/software.html). […]

Experiment [4] deals with T1, GluA1 glutamate receptor carrying the mutation L479Y (Rattus norvegicus, UniProt P19490, L497Y).
T1 construct: expressed in transfected cells; host or cells: Xenopus laevis oocytes (cRNA injection)
Description: Two-electrode voltage clamp of GluA1 expressing Xenopus oocytes. The following applies: CNQX IC50, GluA1 (L479Y) oocytes, in the presence of 5 µM glutamate (EC50), n = 5.
Description: as §1, §4, §5

In experiment [5] the test system is GluATCVlong (GluA1/KcvATCV-1 chimera). Description: Two-electrode voltage clamp of GluATCVlong expressing Xenopus oocytes.
Description: as §1
as §4, with “described. Oozytes were surgically obtained from female X. laevis after anesthesia with 0.1% Tricaine in water under the approval of the Technical University of Darmstadt (Agreement V54-19c20/15 DA8/Anz. 20). After the harvest, oocytes were incubated for 1 h in 0.8 mg collagenase in frog ringer [96 mM NaCl, 2 mM KCl, 1 mM CaCl2,1 mM MgCl2, and 5 mM HEPES (pH 7.4 with NaOH)][53].” for “described.”

The target of another experiment is GluATCV*^ΔNTD (Rattus norvegicus, UniProt P19490, L497Y). The following applies: GluATCV*^ΔNTD oocytes, saturating glutamate concentrations, n = 5.
Description: as §1, §2, §3

Chain of GluATCV* (GluATCV G614S/F615L) (A7K9J5 entry or part of it G77S/F78L): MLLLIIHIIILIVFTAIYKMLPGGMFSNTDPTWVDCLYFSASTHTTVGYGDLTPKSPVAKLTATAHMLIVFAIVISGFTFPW
Chain of GluATCV* (GluATCV G614S/F615L) (P19490 other isoform, or with tags, fused parts or gaps L497Y): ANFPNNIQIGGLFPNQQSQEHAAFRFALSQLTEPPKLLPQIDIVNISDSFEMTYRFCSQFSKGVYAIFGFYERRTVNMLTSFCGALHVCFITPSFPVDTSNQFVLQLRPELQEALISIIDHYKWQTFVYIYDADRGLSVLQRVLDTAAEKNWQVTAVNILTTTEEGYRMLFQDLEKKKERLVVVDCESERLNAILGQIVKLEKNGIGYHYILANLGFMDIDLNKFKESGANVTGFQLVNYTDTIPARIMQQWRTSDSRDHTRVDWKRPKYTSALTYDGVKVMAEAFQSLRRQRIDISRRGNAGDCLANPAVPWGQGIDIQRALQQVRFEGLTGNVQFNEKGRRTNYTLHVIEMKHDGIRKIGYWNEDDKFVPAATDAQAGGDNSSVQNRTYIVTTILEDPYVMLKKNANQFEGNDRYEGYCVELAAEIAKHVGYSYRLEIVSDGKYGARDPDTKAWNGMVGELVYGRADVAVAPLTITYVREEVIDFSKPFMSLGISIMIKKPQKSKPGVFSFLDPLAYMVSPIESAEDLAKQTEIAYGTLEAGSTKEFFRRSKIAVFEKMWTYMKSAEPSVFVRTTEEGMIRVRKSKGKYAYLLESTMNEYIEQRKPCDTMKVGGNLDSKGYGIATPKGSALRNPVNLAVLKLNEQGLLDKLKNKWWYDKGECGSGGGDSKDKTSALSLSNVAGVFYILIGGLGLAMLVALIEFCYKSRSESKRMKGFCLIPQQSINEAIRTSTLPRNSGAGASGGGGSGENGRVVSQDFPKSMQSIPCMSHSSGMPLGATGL
T1 sequence (P19490 19-907 L497Y): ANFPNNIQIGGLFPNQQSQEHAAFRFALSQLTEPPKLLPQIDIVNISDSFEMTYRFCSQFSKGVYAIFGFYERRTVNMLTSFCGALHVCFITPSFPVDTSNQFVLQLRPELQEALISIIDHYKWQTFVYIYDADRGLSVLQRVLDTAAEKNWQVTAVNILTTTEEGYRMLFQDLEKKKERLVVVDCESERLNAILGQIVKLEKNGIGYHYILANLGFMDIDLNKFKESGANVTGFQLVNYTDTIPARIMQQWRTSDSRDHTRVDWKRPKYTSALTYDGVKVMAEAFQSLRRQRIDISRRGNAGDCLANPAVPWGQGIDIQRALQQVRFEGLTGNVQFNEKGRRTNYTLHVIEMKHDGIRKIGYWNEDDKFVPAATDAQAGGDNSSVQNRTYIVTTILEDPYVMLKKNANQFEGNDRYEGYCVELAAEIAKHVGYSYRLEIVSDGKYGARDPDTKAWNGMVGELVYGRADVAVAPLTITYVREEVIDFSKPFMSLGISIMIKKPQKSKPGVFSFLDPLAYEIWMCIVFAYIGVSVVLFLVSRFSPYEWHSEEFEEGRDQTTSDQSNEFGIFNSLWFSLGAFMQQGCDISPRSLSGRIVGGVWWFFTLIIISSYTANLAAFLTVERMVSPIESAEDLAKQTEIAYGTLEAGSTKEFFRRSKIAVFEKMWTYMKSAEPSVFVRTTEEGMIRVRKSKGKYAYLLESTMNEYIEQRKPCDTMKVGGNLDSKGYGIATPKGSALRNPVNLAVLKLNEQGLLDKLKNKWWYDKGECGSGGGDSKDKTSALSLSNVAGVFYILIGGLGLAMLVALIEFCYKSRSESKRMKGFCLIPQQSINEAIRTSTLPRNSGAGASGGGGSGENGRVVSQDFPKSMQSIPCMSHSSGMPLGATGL
Chain of GluATCV*^ΔNTD (P19490 with tags, fused parts or gaps L497Y): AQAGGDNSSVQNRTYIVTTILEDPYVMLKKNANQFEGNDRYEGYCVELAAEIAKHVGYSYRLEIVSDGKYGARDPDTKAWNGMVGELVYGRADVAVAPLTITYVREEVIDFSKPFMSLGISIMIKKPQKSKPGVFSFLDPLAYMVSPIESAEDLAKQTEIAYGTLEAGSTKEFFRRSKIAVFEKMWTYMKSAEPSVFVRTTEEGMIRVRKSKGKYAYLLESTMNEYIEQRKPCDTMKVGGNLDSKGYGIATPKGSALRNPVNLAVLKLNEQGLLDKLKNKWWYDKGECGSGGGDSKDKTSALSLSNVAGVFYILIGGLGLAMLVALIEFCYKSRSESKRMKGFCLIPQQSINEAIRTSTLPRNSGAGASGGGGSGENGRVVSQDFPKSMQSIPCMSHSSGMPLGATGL
Chain of GluATCV*^ΔNTD (A7K9J5 1-82 partner): as the sequence (A7K9J5 entry or part of it G77S/F78L) above

For the molecule `[Ba+2]` [Ba^2+], the “Maximal Ba^2+-sensitive currents” value in experiment [1] turned out to be 1.0 ± 0.3 µA; in experiment [2], 0.8 ± 0.2 µA. Moreover, the “Block of initial leakage and Glu-evoked currents by Ba^2+” value in experiment [1] (500 µM Ba^2+) is on record as “could be blocked”. For the same molecule, the “Ba^2+-block of the leakage current” value in experiment [1] (−70 mV, n = 5) was 84.4 ± 2.3%; in experiment [2] (−70 mV, n = 5) it was 32.9 ± 10.8*** %; in experiment [3] (−70 mV, absence of agonist, 500 µM Ba^2+, n = 5) it was 93.5 ± 1.6%. The “Block of glutamate-induced and leakage currents by Ba^2+” value in experiment [2] was “could be efficiently blocked”.

Turning to `N#Cc1cc2nc(O)c(O)nc2cc1[N+](=O)[O-]` [CNQX, 6-cyano-7-nitroquinoxaline-2,3-dione], the half-maximal inhibitory concentration (IC50) (in general, the midpoint of a concentration-inhibition curve) in experiment [4] is 2200 nM and 2000 nM.

Turning to `N[C@@H](CCC(=O)O)C(=O)O` [glutamate, L-glutamate], the “Glutamate-induced fraction of the Ba^2+-block (IGlu/IBa)” value is 36.4 ± 4.6% in experiment [1] (fraction of total Ba^2+-sensitive current, n = 5); 68.2 ± 5.2** % in experiment [2] (n = 5); 68.2 ± 5.2% in experiment [2] (n = 5, listed as Glu). In experiment [1] (−70 mV, n = 10), this molecule had a Glu-elicited current amplitude of 0.4 ± 0.3 µA. For the same molecule, the “Response to Glu application” value in experiment [5] is “remained insensitive”. For the same molecule, the “Glu-inducible current amplitude (IGlu)” value in experiment [2] (n = 5) stood at 0.7 ± 0.2 µA. The Imax on GluATCV*^ΔNTD is reported as 1.0 ± 0.26 µA. In experiment [3] (1 mM glutamate), the “Currents in response to glutamate” value is listed as “could not elicit any currents”.
